For assay [1], the target named is T1, β-glucuronidase (Escherichia coli, UniProt P05804).
T1 construct: gene uidA
The assay is described as follows: PNPG hydrolysis assay at […] nm with commercial enzyme; Lineweaver-Burk and secondary plots (IC50 […]). It is filed as biochemical.

Assay [2] has as its target T1, β-glucuronidase. The assay is described as follows: PNPG hydrolysis assay at […] nm with commercial enzyme; positive control. The format is biochemical.

T1 sequence (P05804 whole entry): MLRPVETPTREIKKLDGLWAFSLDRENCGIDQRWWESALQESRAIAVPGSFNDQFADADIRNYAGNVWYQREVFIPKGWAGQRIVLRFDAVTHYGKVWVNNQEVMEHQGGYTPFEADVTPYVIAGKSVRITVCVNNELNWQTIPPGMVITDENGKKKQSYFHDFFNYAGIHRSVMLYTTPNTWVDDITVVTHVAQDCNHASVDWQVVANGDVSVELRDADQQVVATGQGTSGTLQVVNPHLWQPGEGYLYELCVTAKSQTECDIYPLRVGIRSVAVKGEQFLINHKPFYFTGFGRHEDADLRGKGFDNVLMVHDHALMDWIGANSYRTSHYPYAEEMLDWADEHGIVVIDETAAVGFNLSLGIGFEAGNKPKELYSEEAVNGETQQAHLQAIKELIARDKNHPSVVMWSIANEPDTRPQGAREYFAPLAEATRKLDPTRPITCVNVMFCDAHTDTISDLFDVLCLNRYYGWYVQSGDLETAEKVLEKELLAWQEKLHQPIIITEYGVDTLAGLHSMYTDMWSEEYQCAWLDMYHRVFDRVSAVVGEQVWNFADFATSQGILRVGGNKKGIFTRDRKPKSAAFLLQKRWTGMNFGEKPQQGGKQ

In turn, `COc1cc(/C=C/C(=O)O[C@H]2[C@H](O)[C@@H](CO)O[C@@]2(CO)O[C@H]2O[C@H](CO)[C@@H](OC(=O)c3ccccc3)[C@H](O)[C@H]2O)cc(OC)c1OC` [compound 3, 4-O-Benzoyl-3′-O-(O-methylsinapoyl) sucrose] displayed a Ki at β-glucuronidase [1] of 13.4 µM. As to `O=C(O)[C@@H](O)[C@H]1OC(=O)[C@H](O)[C@H]1O` [DSA, D-saccharic acid 1,4-lactone], on β-glucuronidase [2], inhibition was half-maximal at 19.6 ± 2.4 µM (IC50).

As a reminder, the Ki is the dissociation constant of the complex between target and ligand, obtained from inhibition or displacement. Usually IC50 stands for the concentration that inhibits the measured activity by half. Low values mean greater potency, high ones weaker potency.

Source of the values: paper PMC9705844, “Inhibitory Activity of 4-O-Benzoyl-3′-O-(OMethylsinapoyl) Sucrose from Polygala tenuifolia on Escherichia coli β-Glucuronidase” (Journal of Microbiology and Biotechnology, 2021).
